The source of these data is patent US4474961A, “1,10[8,9-Benz]phenanthroline” (Development Finance Corporation of New Zealand, priority 1982, dated 1984).

For experiment [1], the system named is tumour. As to conditions: earlier work, literature; cited from earlier work.
In experiment [2] the test system is murine L1210 leukaemia cells. The experiment is described as follows: L1210 in vitro, growth of cultured murine leukaemia cells. The format is cell-based. As to conditions: Mus musculus, concentration that reduces counted number of leukaemia cells by 50% over 70 hours, read-out: ID50 (the source's name). The source says:
L1210 in vitro--The culture methods used are described in detail elsewhere (B. C. Baguley and R. Nash, Europ.J.Cancer, 17, 671-679 (1981). Acceptable reproducibility of data depends critically upon the maintenance of optimal culture conditions. L1210 cells were initially obtained from Dr. I. Wodinsky, Arthur D. Little Inc., Boston, U.S.A., under the auspices of the National Cancer Institute.
ID50 --the nanomolar concentration of drug which when added to cultures of murine L1210 leukaemia cells over a period of 70 hours, reduces the resultant counted number of leukaemia cells by 50% (B. C. Baguley and R. Nash, Europ.J.Cancer 17, 671-679 (1981).

For experiment [3], the system named is P388 leukaemia. The experiment is described as follows: P388 in vivo, life span of mice bearing intraperitoneal P388 leukaemia. Set-up: species or system mice (F1 hybrid, DBA-2 male×C57 B1 female). As to conditions: for ILS (percentage increase in life span): at optimal dose, days 1, 5 and 9, controls survive 11 days on average, >20% statistically significant; for OD (O.D., optimal drug dose): solution in 0.1 ml of 30% v/v ethyl alcohol in water on days 1, 5 and 9, soluble acid addition salt. The text has this: These have been shown by studies at the National Cancer Institute, U.S.A. to be useful for detecting agents with antitumor activity against clinical cancer (A. Goldin, J. M. Venditti, J. S. MacDonald, F. M. Mugia, J. E. Henney and V. T. De Vita, Europ.J. Cancer 17, 129-142, (1981). The abbreviations given in Table II are:
P388 in vivo--Tumour P388 cells were obtained as frozen stocks from Mason Research Inc., U.S.A. and passaged intraperitoneally according to standard methods (Cancer Chemother. Rep. 3, Part 3, page 9, 1972) in DBA-2 mice of either sex. Groups of six F1 hybrid mice (DBA-2 male×C57 B1 female, g weight 20±1 g) were injected intraperitoneally with 10^6 cells on day 0.
O.D.--optimal drug dose, in milligrams per kilogram, administered as a solution in 0.1 ml of 30% v/v ethyl alcohol in water on days 1, 5 and 9 after tumour inoculation. The drug is administered as a soluble acid addition salt.
ILS--percentage increase in life span of treated animals over that of groups of control animals injected with tumour alone. The average survival of control mice was 11 days. Values of ILS greater than 20% are considered statistically significant.

pIC50: −log10 of the molar value.

As to `CS(=O)(=O)Nc1ccc(Nc2c3ccccc3nc3ccccc23)cc1` [AMSA, 4'-(9-acridinylamino) methanesulphonanilide], in experiment [1], the antitumour effect result is reported as “marked antitumour effect”.
Turning to `COc1cc(NS(C)(=O)=O)ccc1Nc1c2ccccc2nc2c1ccc1cccnc12` [Compound 1], the pIC50 in experiment [2] is 7.59. In addition, in experiment [3], the Active entry was “Yes”; the “ILS (percentage increase in life span)” value came to 109%; the “OD (O.D., optimal drug dose)” value is 13.3 milligrams per kilogram.
For `CS(=O)(=O)Nc1ccc(Nc2c3ccccc3nc3c2ccc2cccnc23)cc1` [Compound 2], the pIC50 in experiment [2] is 7.24. In experiment [3], the Active result was “Yes”; the “ILS (percentage increase in life span)” value is on record as 30%; the “OD (O.D., optimal drug dose)” value worked out at 150 milligrams per kilogram.
The matching figures for `COC(=O)Nc1ccc(Nc2c3ccccc3nc3c2ccc2cccnc23)c(OC)c1` [Compound 3]: 7.34, “Yes”, 95% and 45 milligrams per kilogram.
In the case of `COC(=O)Nc1ccc(Nc2c3ccccc3nc3c2ccc2cccnc23)cc1` [Compound 4], in experiment [2], the pIC50 was 7.74. In addition, in experiment [3], the Active result is “Yes”; the “ILS (percentage increase in life span)” value stood at 64%; the “OD (O.D., optimal drug dose)” value is recorded as 30 milligrams per kilogram.
In the case of `COP(=O)(Nc1ccc(Nc2c3ccccc3nc3c2ccc2cccnc23)cc1)OC` [Compound 5], the pIC50 in experiment [2] was 7.51. Also, in experiment [3], the Active entry is given as “Yes”; the “ILS (percentage increase in life span)” value is 64%; the “OD (O.D., optimal drug dose)” value is recorded as 45 milligrams per kilogram.
